The values below come from patent publication US8173392B2, “In vivo incorporation of unnatural amino acids” (The Scripps Research Institute, priority 2001, dated 2012).

Data set [1] has as its system valine positions, mutant ValRS. Conditions: mutant E. coli strain grown in presence of Abu; cited from earlier work.
A further data set deals with T1, mutant TyrRS (LWJ16) (Methanocaldococcus jannaschii, UniProt Q57834, D158A/E107T/L162P/N268S/Y32Q).
T1 construct: The mutant TyrRS (LWJ16) gene with six histidines at its C-terminus was cloned into plasmid pQE-60; His6 (C); made in house
Kind of data set: pyrophosphate-exchange assay (adenylate formation with ATP). Format: biochemical, M. jannaschii. Conditions: for Kcat / Km: 37° C., pH7.5. Here is the method:
Kinetics of adenylate formation of O-methyl-L-tyrosine and tyrosine with ATP catalyzed by the mutant TyrRS (LWJ16) were analyzed in vitro using a pyrophosphate-exchange assay. The mutant TyrRS (LWJ16) gene with six histidines at its C-terminus was cloned into plasmid pQE-60 (Qiagen, CA) to afford plasmid pQE-mJYRS. Protein was purified by immobilized metal affinity chromatography according to manufacture's protocol (Qiagen, CA). Pyrophosphate (PPi) exchange was carried out at 37° C. in a reaction mixture containing 100 mM Tris HCl (pH7.5), 10 mM KF, 5 mM MgCl2, 2 mM ATP, 2 mM NaPPi, 0.1 mg/mL bovine serum albumin, approximately 0.01 microCi/mL [32P]NaPPi, and various concentrations of tyrosine or O-methyl-L-tyrosine. Reactions were initiated with the addition of the purified mutant TyrRS (LWJ16), and aliquots were periodically taken and quenched with 0.2 M NaPPi, 7% perchloric acid, and 2% activated charcoal. The charcoal was filtered and washed with 10 mM NaPPi (pH2), then measured by scintillation counting to determine the 32P levels in charcoal-adsorbed ATP. Values of kcat and Km were calculated by direct fitting of the Michaelis-Menten equation using nonlinear regression analysis.

For the next data set, the system named is E. coli. Kind of data set: effect of the amino acid on growth rate of E. coli. Format: cell-based. The settings on record: 1 mM. How it is done: Following the two rounds of selection and DNA shuffling, a clone (mutant TyrRS (LWJ16)) was evolved whose survival in chloramphenicol was dependent on the addition of 1 mM O-methyl-L-tyrosine to the growth media. In the absence of O-methyl-L-tyrosine, cells harboring the mutant TyrRS (LWJ16) were not viable on minimal media plates containing 1% glycerol, 0.3 mM leucine (GMML), and 15 micrograms/mL of chloramphenicol. Cells were able to grow on GMML plates with 125 micrograms/mL chloramphenicol in the presence of 1 mM O-methyl-L-tyrosine. Similar results were obtained in liquid GMML.

In data set [2] the test system is cells expressing m-acetyl phenylalanine-incorporated DHFR.
Protocol: Cells expressing the “ketone handle”-incorporated DHFR were incubated with fluorescein hydrazide solution. After 36 hours at 4° C. and extensive washes to remove excess fluorescein hydrazide, the labeled DHFR protein was purified and subjected to fluorescence emission tests. As a negative control in parallel, m-methoxy phenylalanine-incorporated DHFR was also purified with the same procedures.
Data set [3] has as its system yeast amber suppressor tRNAPheCUA/phenylalanyl-tRNA synthetase pair. The settings on record: cited from earlier work.
A further data set concerns SjGST homodimer. In words: photo-activated crosslinking of SjGST (365 nm, SDS-PAGE). The arrangement: species or system Schistosoma Japonica. The settings on record: long wavelength UV irradiation, 5 minutes. The text has this: In vivo incorporation of pBpa into GST. […] This protein is a dimer of two identical subunits which have previously been crosslinked non-specifically using gluteraldehyde. The crystal structure of the dimeric Schistosoma Japonica glutathione-S-transferase (SjGST) (McTigue, M. A., Williams, D. R. & Tainer, J. A. Journal of Molecular Biology 246, 21-27 (1995)) was used to identify two sites to substitute with pBp: residue Phe52, which is buried in the dimer interface of the crystal structure, and residue Tyr198 which is solvent exposed. The codons corresponding to Phe52 or Tyr198 in the gene for a 27 kDa protein Sj GST, were replaced with amber codons. The orthogonal synthetase tRNA pair was then used to site specifically incorporate pBpa into SjGST in E. coli at these sites. Upon irradiation with long wavelength ultraviolet radiation, purified SjGST was converted to a covalently linked homodimer as judged by denaturing SDS PAGE. Approximately 70% of the SjGST present was crosslinked in 5 minutes.
Photo-activated crosslinking. Crosslinking reactions were performed in a 96 well microtitre plate (Nuncsorb) using 100 μL of 10 ng/μL SjGST (in 50 mM NaH2Po4, 300 mM NaCl, 250 mM imidazole) at 4° C. Samples were irradiated at 365 nm using a handheld UV lamp (1 SV, 60 Hz, 0.2 A; Spectronics, NY, USA), for 1 min or 5 min. […]

In data set [4] the test system is Asp112TAG codon in the CAT gene. Kind of data set: in vivo chloramphenicol acetyltransferase assay (suppression of Asp112TAG codon in CAT gene, pYC-J17). It counts as cell-based, E. coli. The settings on record: GMML plates. How it is done:
A positive selection was then applied that is based on suppression of an amber stop codon at a nonessential position (Asp112) in the chloramphenicol acetyltransferase (CAT) gene (M. Pastrnak, T. J. Magliery, P. G. Schultz, Helvetica Chimica Acta. 83, 2277-86 (2000)). Cells were grown in media containing the unnatural amino acid and selected for their survival in the presence of various concentration of chloramphenicol. If a mutant TyrRS charges the orthogonal mtRNACUA^Tyr with any amino acid, either natural or unnatural, the cell produces CAT and survives.
The gene encoding mtRNACUA^Tyr under the control of the lpp promoter and rrnC terminator was inserted into plasmid pACMD112TAG (a pACYC184 plasmid with a TAG stop codon replacing Asp112 in its CAT gene (M. Pastrnak, T. J. Magliery, P. G. Schultz, Helvetica Chimica Acta. 83, 2277-86 (2000))) to afford plasmid pYC-J17. Supercoiled DNA encoding the TyrRS library was transformed into E. coli DH10B competent cells containing pYC-J17 to yield a library of size greater than 3×10^9 cfu, ensuring complete coverage of the original library. Cells were then plated on minimal media plates containing 1% glycerol and 0.3 mM leucine (GMML) with 17 micrograms/mL tetracycline(Tet), 25 micrograms/mL kanamycin (Kan), 50 micrograms/mL of chloramphenicol (Cm), and 1 mM unnatural amino acid. […]

In data set [5] the test system is amber codons in T7 RNA polymerase gene driving GFPuv. In words: fluorimetric analysis, T7 RNA polymerase/GFPuv reporter (pREP/YC-JYCUA). It counts as cell-based, E. coli. The settings on record: presence versus absence of OAT. Here is the method: Construction of a multipurpose reporter plasmid. In order to construct a multipurpose plasmid to be used both for selecting and screening variants of a M. jannaschii TyrRS, plasmid pREP(10) was combined with plasmid pYC-J17 (Wang, L, Brock, A., Herberich, B. & Schultz, P. G., Science, 2001, 292, 498-500) to obtain pREP/YC-JYCUA (FIG. 7b). Plasmid pREP/YC-JYCUA was assayed for function with a compatible plasmid expressing a variant of M. jannaschii TyrRS (pBK-mJYRS; Wang, L, Brock, A., Herberich, B. & Schultz, P. G., Science, 2001, 292, 498-500) selective for incorporating O-Methyl-Tyrosine (OMY).
As described above, the T7 RNA polymerase/GFP system can be used to quantitatively compare the activities of synthetase variants. […] The fluorescence enhancement for cells grown in the presence versus the absence of the unnatural amino acid is thus about 6-fold higher for cells expressing OAT-RS (1) from selection and screening than for cells expressing the OAT-RS clone derived from positive/negative selection using barnase. […] However, the fluorescence enhancement for cells grown in the presence versus the absence of an unnatural amino acid is expected to represent a lower limit for the fidelity of unnatural amino acid incorporation, as competition of unnatural amino acids for being bound by an evolved synthetase variant would reduce binding of natural amino acids. […]

As to `CCC(N)C(=O)O` (centres unmarked) [Abu, aminobutyrate], in data set [1], the “valines replaced at each valine position in the native protein” value is reported as “about 24%”.

In general, Km refers to the concentration of substrate that gives half-maximal velocity. `N[C@@H](Cc1ccc(O)cc1)C(=O)O` [L-tyrosine]: on mutant TyrRS (LWJ16), the “Km higher than that for O-methyl-L-tyrosine” value is reported as “approximately 13 fold”, the “kcat down relative to that for O-methyl-L-tyrosine” value is reported as 8 fold, the Kcat is 1.8 ± 0.2 10 − 3 s − 1 and the Km stood at 5.83 mM.

In the case of `COc1ccc(C[C@H](N)C(=O)O)cc1` [O-methyl-L-tyrosine], the “effect on growth rate of E. coli” value with E. coli is reported as “does not significantly affect the growth rate”. For the same molecule, on mutant TyrRS (LWJ16), the “kcat/Km higher than that of tyrosine” value is reported as “about 100 fold”, the Kcat was 14 ± 1 10 − 3 s − 1 and the Km came out at 0.443 mM.

Turning to `NN1C(=O)c2ccccc2C12c1ccc(O)cc1Oc1cc(O)ccc12` [fluorescein hydrazide], in data set [2], the cell permeability result is “cell-permeable” and the lysis of cells entry is recorded as “does not lyse cells”.

As for `N[C@@H](Cc1ccc(F)cc1)C(=O)O` [p-F-Phe, p-fluorophenylalanine], the “amino acid found at the Phe codon positions” value in data set [3] is given as 7%. Further, the “translation of the mutagenesis site with the amino acid” value in data set [3] (excess of p-F-Phe in growth media) is 64-75%.

“SjGST: Schistosoma Japonica glutathione-S-transferase with pBpa, presumably at Phe52 in the dimer interface”: the “SjGST crosslinked to covalent homodimer” value in the data set on SjGST homodimer is reported as “Approximately 70%”.

B1: mutant TyrRS (LWJ16) (protein, listed as Methanococcus jannaschii)
chain: MDEFEMIKRNTSEIISEEELREVLKKDEKSAQIGFEPSGKIHLGHYLQIKKMIDLQNAGFDIIILLADLHAYLNQKGELDEIRKIGDYNKKVFEAMGLKAKYVYGSTFQLDKDYTLNVYRLALKTTLKRARRSMELIAREDENPKVAEVIYPIMQVNAIHYPGVDVAVGGMEQRKIHMLARELLPKKVVCIHNPVLTGLDGEGKMSSSKGNFIAVDDSPEEIRAKIKKAYCPAGVVEGNPIMEIAKYFLEYPLTIKRPEKFGGDLTVSSYEELESLFKNKELHPMDLKNAVAEELIKILEPIRKRL
Consider B1, for which the “chloramphenicol concentration at which cells were not viable” value in data set [4] (absence of O-methyl-L-tyrosine) amounted to 15 micrograms/mL. Besides, the “chloramphenicol concentration at which cells were able to grow” value in data set [4] (presence of 1 mM O-methyl-L-tyrosine) was determined as 125 micrograms/mL.

B2: OAT-RS (1): O-allyl-tyrosine synthetase clone from positive selection and negative FACS screening (protein, listed as Methanococcus jannaschii)
chain: MDEFEMIKRNTSEIISEEELREVLKKDEKSASIGFEPSGKIHLGHYLQIKKMIDLQNAGFDIIILLADLHAYLNQKGELDEIRKIGDYNKKVFEAMGLKAKYVYGSTFQLDKDYTLNVYRLALKTTLKRARRSMELIAREDENPKVAEVIYPIMQVNTYHYAGVDVAVGGMEQRKIHMLARELLPKKVVCIHNPVLTGLDGEGKMSSSKGNFIAVDDSPEEIRAKIKKAYCPAGVVEGNPIMEIAKYFLEYPLTIKRPEKFGGDLTVNSYEELESLFKNKELHPMDLKNAVAEELIKILEPIRKRL
With B2, the “fluorescence enhancement higher than for OAT-RS clone from positive/negative selection using barnase” value in data set [5] was “about 6 fold”.
